Measured values as given in patent publication US9539223B2, “Methods for treating bacterial infections” (Neoculi Pty Ltd., priority 2013, dated 2017).
In brackets after ≈: the same amount, converted by molar mass.

How the values were obtained:
[1] = test system: methicillin-resistant and methicillin-susceptible Staphylococcus aureus; experiment: Minimum bactericidal concentration, S. aureus clinical isolates
Text: The MBC was defined as the lowest drug concentration at which 99.95% of the original inoculum was eliminated.

MRSA isolates = experiment: MBC test (CLSI), MRSA isolates; format: cell-based, Staphylococcus aureus
Protocol: There was an obvious reduction in the number of bacteria with increasing concentration, but growth was present compared with no growth for S. aureus. […] Each MBC test was performed in duplicate.

[2] = test system: E. coli ATCC 25922 spheroplasts; experiment: Activity against spheroplasts (colony forming units over 24 hours); format: cell-based, Escherichia coli
Protocol: E. coli ATCC 25922 was grown overnight on agar at 37° C. Two colonies from the overnight incubation were used to inoculate ˜20 ml of cation adjusted mueller hinton broth. Inoculated broth was incubated for 18 hours at 37° C. […] Formation of spheroplasts was checked using a phase contrast microscope.
Fifty microliters of DMSO only was added to the control test tube. Spheroplasts were incubated for 24 hours with 20 μl samples taken at 0, 2, 4, 6, 8 and 24 hours. Twenty microliter samples were serially diluted 1:10 and 10 ul samples of appropriate dilutions were spotted in triplicate onto brain heart infusion agar. Brain heart infusion agar was incubated at 37° C. for 48 hours and colonies were counted at 24 and 48 hours to determine the number of colony forming units.

S. aureus KC01 = experiment: Kill kinetics assay, S. aureus KC01; format: cell-based, Staphylococcus aureus
Protocol: (§1) S. aureus KC01 and E. faecalis USA01, not determined to be MRSA or VRE, respectively, were grown overnight on Columbia SBA at 37° C. A few colonies of bacteria were then suspended in CAMHB (cation-adjusted Mueller Hinton broth) and adjusted to OD600 of 0.08 to 0.10. The bacterial suspension was diluted 1:10. […] The tubes were incubated at 37° C., with constant shaking. In order to determine the number of viable bacteria present at various time points, a 100 μL aliquot was removed from each tube and diluted. Then, 100 μL of each dilution were spread onto colony count agar, in duplicate, and incubated for 48 h at 37° C. After 24 h the numbers of colonies present on each plate were counted and therefore the number of viable bacteria present in the original suspension enumerated. Plates were re-checked after 48 hours.

Streptococcus pneumoniae = experiment: Minimum inhibitory concentration assay (CLSI), Str. pneumoniae isolates; format: cell-based
Protocol: Minimum inhibitory concentration tests were performed according to CLSI Standards (CLSI 2008). […] The solutions were then serially diluted across the row, leaving 2 columns for positive and negative controls. A bacterial suspension was prepared by adding fresh colonies obtained from an overnight culture on Sheep Blood Agar (SBA) to a 9.1 g/L saline solution. This suspension was adjusted to a concentration of between 4×10^8 and 5×10^8 CFU/mL. Concentration of the suspension was determined by measuring optical density (OD) using a spectrophotometer at a wavelength of 600 nm where the correct concentration was determined to have an optical density of between 1.00 and 1.20. One milliliter of this suspension was added to 9 mL of saline before being added to all wells, excluding the negative control wells, in 10 μL volumes giving a final concentration of between 4×10^5 and 5×10^5 CFU/mL in each well. The tests were then incubated for 24 hours at 37° C. and then assessed both visually and using OD readings from a microplate reader at a wavelength of 600 nm. These tests were performed in duplicate but repeated if discrepancies were observed.
The minimum inhibitory concentration (MIC) was determined to be the lowest concentration of antibiotic that prevented growth of bacteria both visually and using OD readings. […]

[3] = Precipitation of NCL812 in assay media; format: physicochemical
E. faecalis USA01 = experiment: Kill kinetics assay, E. faecalis USA01; format: cell-based, Enterococcus faecalis
Protocol: as §1

## N=C(N/N=C/c1ccc(Cl)cc1)N/N=C/c1ccc(Cl)cc1 [NCL812, 1,2-bis[(E)-(4-chlorophenyl)methylideneamino]guanidine]
[1]
  MBC range: 4 to 16 µg/mL
  isolates with MBC equivalent to the MIC: 83.33%
MRSA isolates; MRSA 1, 4 μg/ml
  MBC test: growth on Sheep Blood Agar: 0
MRSA isolates; MRSA 1, 8 μg/ml
  MBC test: growth on Sheep Blood Agar: 0
MRSA isolates; MRSA 1, 16 μg/ml
  MBC test: growth on Sheep Blood Agar: 0
MRSA isolates; MRSA 1, 32 μg/ml
  MBC test: growth on Sheep Blood Agar: 0
MRSA isolates; MRSA 3, 4 μg/ml
  MBC test: growth on Sheep Blood Agar: 0
MRSA isolates; MRSA 3, 16 μg/ml
  MBC test: growth on Sheep Blood Agar: 0
MRSA isolates; MRSA 3, 32 μg/ml
  MBC test: growth on Sheep Blood Agar: 0
MRSA isolates; MRSA 4, 4 μg/ml
  MBC test: growth on Sheep Blood Agar: 0
MRSA isolates; MRSA 4, 8 μg/ml
  MBC test: growth on Sheep Blood Agar: 0
MRSA isolates; MRSA 4, 16 μg/ml
  MBC test: growth on Sheep Blood Agar: 0
MRSA isolates; MRSA 4, 32 μg/ml
  MBC test: growth on Sheep Blood Agar: 0
MRSA isolates; MRSA 5, 4 μg/ml
  MBC test: growth on Sheep Blood Agar: 0
MRSA isolates; MRSA 5, 8 μg/ml
  MBC test: growth on Sheep Blood Agar: 0
MRSA isolates; MRSA 5, 16 μg/ml
  MBC test: growth on Sheep Blood Agar: 0
MRSA isolates; MRSA 5, 32 μg/ml
  MBC test: growth on Sheep Blood Agar: 0
MRSA isolates; MRSA 6, 4 μg/ml
  MBC test: growth on Sheep Blood Agar: 0
MRSA isolates; MRSA 6, 8 μg/ml
  MBC test: growth on Sheep Blood Agar: 0
MRSA isolates; MRSA 6, 16 μg/ml
  MBC test: growth on Sheep Blood Agar: 0
MRSA isolates; MRSA 6, 32 μg/ml
  MBC test: growth on Sheep Blood Agar: 0
MRSA isolates; MRSA 7, 4 μg/ml
  MBC test: growth on Sheep Blood Agar: 0
MRSA isolates; MRSA 7, 16 μg/ml
  MBC test: growth on Sheep Blood Agar: 0
MRSA isolates; MRSA 7, 32 μg/ml
  MBC test: growth on Sheep Blood Agar: 0
MRSA isolates; MRSA 8, 8 μg/ml
  MBC test: growth on Sheep Blood Agar: 0
MRSA isolates; MRSA 8, 16 μg/ml
  MBC test: growth on Sheep Blood Agar: 0
MRSA isolates; MRSA 8, 32 μg/ml
  MBC test: growth on Sheep Blood Agar: 0
MRSA isolates; MRSA 9, 4 μg/ml
  MBC test: growth on Sheep Blood Agar: 0
MRSA isolates; MRSA 9, 8 μg/ml
  MBC test: growth on Sheep Blood Agar: 0
MRSA isolates; MRSA 9, 16 μg/ml
  MBC test: growth on Sheep Blood Agar: 0
MRSA isolates; MRSA 9, 32 μg/ml
  MBC test: growth on Sheep Blood Agar: 0
MRSA isolates; MRSA 10, 4 μg/ml
  MBC test: growth on Sheep Blood Agar: 0
MRSA isolates; MRSA 10, 8 μg/ml
  MBC test: growth on Sheep Blood Agar: 0
MRSA isolates; MRSA 10, 16 μg/ml
  MBC test: growth on Sheep Blood Agar: 0
MRSA isolates; MRSA 10, 32 μg/ml
  MBC test: growth on Sheep Blood Agar: 0
MRSA isolates; MRSA 11, 8 μg/ml
  MBC test: growth on Sheep Blood Agar: 0
MRSA isolates; MRSA 11, 16 μg/ml
  MBC test: growth on Sheep Blood Agar: 0
MRSA isolates; MRSA 11, 32 μg/ml
  MBC test: growth on Sheep Blood Agar: 0
MRSA isolates; MRSA 12, 4 μg/ml
  MBC test: growth on Sheep Blood Agar: 0
MRSA isolates; MRSA 12, 16 μg/ml
  MBC test: growth on Sheep Blood Agar: 0
MRSA isolates; MRSA 12, 32 μg/ml
  MBC test: growth on Sheep Blood Agar: 0
MRSA isolates; MRSA 13, 4 μg/ml
  MBC test: growth on Sheep Blood Agar: 0
MRSA isolates; MRSA 13, 8 μg/ml
  MBC test: growth on Sheep Blood Agar: 0
MRSA isolates; MRSA 13, 16 μg/ml
  MBC test: growth on Sheep Blood Agar: 0
MRSA isolates; MRSA 13, 32 μg/ml
  MBC test: growth on Sheep Blood Agar: 0
MRSA isolates; MRSA 14, 4 μg/ml
  MBC test: growth on Sheep Blood Agar: 0
MRSA isolates; MRSA 14, 8 μg/ml
  MBC test: growth on Sheep Blood Agar: 0
MRSA isolates; MRSA 14, 16 μg/ml
  MBC test: growth on Sheep Blood Agar: 0
MRSA isolates; MRSA 14, 32 μg/ml
  MBC test: growth on Sheep Blood Agar: 0
MRSA isolates; MRSA 516, 4 μg/ml
  MBC test: growth on Sheep Blood Agar: 0
MRSA isolates; MRSA 516, 8 μg/ml
  MBC test: growth on Sheep Blood Agar: 0
MRSA isolates; MRSA 516, 16 μg/ml
  MBC test: growth on Sheep Blood Agar: 0
MRSA isolates; MRSA 516, 32 μg/ml
  MBC test: growth on Sheep Blood Agar: 0
MRSA isolates; MRSA 570, 4 μg/ml
  MBC test: growth on Sheep Blood Agar: 0
MRSA isolates; MRSA 570, 8 μg/ml
  MBC test: growth on Sheep Blood Agar: 0
MRSA isolates; MRSA 570, 16 μg/ml
  MBC test: growth on Sheep Blood Agar: 0
MRSA isolates; MRSA 570, 32 μg/ml
  MBC test: growth on Sheep Blood Agar: 0
MRSA isolates; MRSA 580, 4 μg/ml
  MBC test: growth on Sheep Blood Agar: 0
MRSA isolates; MRSA 580, 8 μg/ml
  MBC test: growth on Sheep Blood Agar: 0
MRSA isolates; MRSA 580, 16 μg/ml
  MBC test: growth on Sheep Blood Agar: 0
MRSA isolates; MRSA 580, 32 μg/ml
  MBC test: growth on Sheep Blood Agar: 0
MRSA isolates; MRSA 606, 4 μg/ml
  MBC test: growth on Sheep Blood Agar: 0
MRSA isolates; MRSA 606, 8 μg/ml
  MBC test: growth on Sheep Blood Agar: 0
MRSA isolates; MRSA 606, 16 μg/ml
  MBC test: growth on Sheep Blood Agar: 0
MRSA isolates; MRSA 606, 32 μg/ml
  MBC test: growth on Sheep Blood Agar: 0
MRSA isolates; MRSA 610, 4 μg/ml
  MBC test: growth on Sheep Blood Agar: 0
MRSA isolates; MRSA 610, 16 μg/ml
  MBC test: growth on Sheep Blood Agar: 0
MRSA isolates; MRSA 610, 32 μg/ml
  MBC test: growth on Sheep Blood Agar: 0
[2]
  concentration with significant decrease in colony forming units over time: ≥ 32 µg/mL
S. aureus KC01; 2 h time point
  reduction in bacterial numbers from initial numbers: ≥ 2.5 log10
  reduction in bacterial numbers in comparison to the control: > 3 log10
S. aureus KC01; 6 h incubation
  reduction in bacterial numbers: ≥ 2 log10
S. aureus KC01; after 24 h
  numbers of bacteria compared to the control: not significantly different to the control
Streptococcus pneumoniae
  MIC50: 4 µg/mL (≈ 12 µM)
  MIC90: 4 µg/mL (≈ 12 µM)
[3]; MIC plates in Mueller Hinton II Broth without inoculum
  Precipitation of NCL812 observed at: ≥ 8 µg/mL
[3]; Mueller Hinton broth II (DNA and RNA synthesis assays), MIC […] μg/ml
  precipitation observed at: 4 to 8 fold the MIC
E. faecalis USA01; 32 and 64 μg/mL, until the 6 h time point
  rise in bacterial numbers: ~1 log10
E. faecalis USA01; 2 h
  reduction in CFU/mL compared to the growth control: 2 log10
  reduction in CFU/mL compared to the original bacterial numbers: greater than 1 log10
E. faecalis USA01; 24 h, all concentrations
  bacterial numbers compared to the growth control: increased to almost the same level as the growth control
